Experimental data reported in publication PMC11965169, “Flavin-containing siderophore-interacting protein of Shewanella putrefaciens DSM 9451 reveals common structural and functional aspects of ferric–siderophore reduction” (Journal of Biological Inorganic Chemistry, 2025).

Key:
[1] = molecular target: T1, SbSIP (siderophore-interacting protein, flavin-containing siderophore reductase) (Shewanella bicestrii, UniProt A0A220UGT4); assay: X-ray crystal structure, […] Å; type: binding
T1 construct: gene CF168_00510; Trx-His10 tag-free SbSIP; chains A and B, residues 1-3/247-251 and 1-5/249-251 not modelled
T1 sequence (A0A220UGT4 1-250): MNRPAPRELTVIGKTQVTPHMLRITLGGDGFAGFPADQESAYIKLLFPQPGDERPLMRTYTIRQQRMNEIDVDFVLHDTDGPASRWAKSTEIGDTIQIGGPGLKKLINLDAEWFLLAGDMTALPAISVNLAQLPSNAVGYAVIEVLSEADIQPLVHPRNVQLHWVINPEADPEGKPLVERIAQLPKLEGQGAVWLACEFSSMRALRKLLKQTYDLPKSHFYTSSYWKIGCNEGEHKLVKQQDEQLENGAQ

[2] = molecular target: T2, SbSIP (siderophore-interacting protein, flavin-containing siderophore reductase) (Shewanella bicestrii, UniProt A0A220UGT4); assay: […] NMR titration (slow exchange); type: binding
T2 construct: gene CF168_00510

[3] = molecular target: T2, SbSIP (siderophore-interacting protein, flavin-containing siderophore reductase); assay: […] NMR titration (fast exchange, chemical shift perturbation); type: binding
[4] = molecular target: T2, SbSIP (siderophore-interacting protein, flavin-containing siderophore reductase); assay: stopped-flow reduction of ferric siderophore by purified SbSIPsemi, […] nm; type: biochemical

`Cc1cc2nc3c(=O)[nH]c(=O)nc-3n(C[C@H](O)[C@H](O)[C@H](O)COP(=O)(O)OP(=O)(O)OC[C@H]3O[C@@H](n4cnc5c(N)ncnc54)[C@H](O)[C@@H]3O)c2cc1C` [FAD] was tested, and the “X-ray crystal structure, 1.86 Å” value [1] was “contained two SbSIP protein chains (A and B), each one bound to an FAD moiety”.

`NC(=O)C1=CN([C@@H]2O[C@H](COP(=O)(O)OP(=O)(O)OC[C@H]3O[C@@H](n4cnc5c(N)ncnc54)[C@H](O)[C@@H]3O)[C@@H](O)[C@H]2O)C=CC1` [NADH] gave a Kd [2] of 17 ± 5 µM.

With `NC(=O)C1=CN([C@@H]2O[C@H](COP(=O)(O)OP(=O)(O)OC[C@H]3O[C@@H](n4cnc5c(N)ncnc54)[C@H](OP(=O)(O)O)[C@@H]3O)[C@@H](O)[C@H]2O)C=CC1` [NADPH] the Kd [3] was 107 ± 2 µM.

With Fe(III)–bisucaberin the “stopped-flow reduction of ferric siderophore by purified SbSIPsemi, 600 nm” value [4] was 0.0014 ± 2 × 10^–4.

Fe(III)–putrebactin was tested, and the “stopped-flow reduction of ferric siderophore by purified SbSIPsemi, 600 nm” value [4] was 0.0031 ± 5 × 10^–5.
